The values below come from patent US10479814B2, “Adenosine receptor activation reagent and the uses of thereof” (Zhejiang Subtropical Crops Research Institute, priority 2014, dated 2019).

Structures are written as SMILES. “Also recorded” adds a separate entry of the source.

For test [1], the system named is myeloperoxidase (MPO) activity in mouse renal cortex. The test can be described thus: kidney ischemia reperfusion: MPO analysis. Format: in vivo. Conditions: vs IR group, P<0.05; HEA 5 and 7.5 mg/kg; DPCPX 1 mg/kg; DPCPX 1 mg/kg+HEA 5 mg/kg. As to the method:
Male C57BL/6 mice 20-25 g, after one week of adaptive feeding to the animals, were randomly divided into eight groups: sham-operation group, IR group, HEA 5 mg/kg group, HEA 7 mg/kg group, HEA 10 mg/kg group, DPCPX (1 mg/kg) group, DPCPX (1 mg/kg)+HEA (5 mg/kg) group and DPCPX (1 mg/kg)+HEA (7.5 mg/kg) group. The mouse was weighed before operation, then peritoneally injected with pentobarbital sodium 50 mg/kg to anaesthetize the mouse, abdomen was opened by ventromedial incision, blunt dissection and the kidney pedicle was sufficiently exposed, renal ischemia was induced by clapping two side kidney pedicle with non-invasive bulldog clamp, the color of kidney change from bright red to purple black immediately, determination method of success of the experiment model can refer to the methods in literature 7 and 8. At time of 30 min of ischemia the bulldog clamp was loosened, the perfuse was restored, the color of kidney changed gradually from dark red to bright red, showing re perfusion was successful. The wound was stitched. The animals were freely fed water and food. In the sham-operation group, the mice only received operation of abdomen open, kidney pedicle and abdomen suture. […] 9.2.6 Real time quantitative PCR analysis of gene expression of ICAM-1, TNF-α and IL-1β; the sequence of primer used in RT-PCR reaction system is as follow: […]

The test system of test [2] is mouse spontaneous activity. In words: mouse spontaneous activity (sedation). Format: in vivo. As to the method: Male ICR mice were randomly divided into four groups, and adenosine A1R antagonist DPCPX was selected. The mice were divided into solvent group, HEA (15 mg/kg) group, DPCPX (4 mg/kg) and DPCPX+HEA (4 mg/kg+15 mg/kg) group; wherein in DPCPX+HEA group, the mice was peritonealelly injected with the antagonist, after 10 min the HEA was peritoneally injected. After 15 min of drug administration, the mice were put into a single opaque square spontaneous activity box (50 cm×50 cm×40 cm), and foot grating number within 5 min was recorded by video camera. Calculating on the basis of four limbs of the mouse entering the same lattice, as the activity index of the animal.

Test [3] relates to IL-1β mRNA in mouse renal cortex. The test can be described thus: kidney ischemia reperfusion: real time quantitative PCR of IL-1β. Format: in vivo. Conditions: vs IR group; HEA 5, 7.5, 10 mg/kg; DPCPX 1 mg/kg; DPCPX 1 mg/kg+HEA. On the procedure: Male C57BL/6 mice 20-25 g, after one week of adaptive feeding to the animals, were randomly divided into eight groups: sham-operation group, IR group, HEA 5 mg/kg group, HEA 7 mg/kg group, HEA 10 mg/kg group, DPCPX (1 mg/kg) group, DPCPX (1 mg/kg)+HEA (5 mg/kg) group and DPCPX (1 mg/kg)+HEA (7.5 mg/kg) group. […]
The MPO analysis was conducted according to the specification in the kit. 9.2.6 Real time quantitative PCR analysis of gene expression of ICAM-1, TNF-α and IL-1β; the sequence of primer used in RT-PCR reaction system is as follow:
PCR amplification reaction system: IQ SYBR Green Super mix 12.5 μL, Forward primer (10 μmo/L) 1 μL, Reverse primer (10 μmol/L) 1 μL, cDNA (water was added to dilute to same level) 10.5 μL. […] The statistics and calculation of experiment results was automatically conducted fluorescence quantitative PCR analyzing software BIO-RAD CFX Manager. Target gene mRNA expression level was calculated by 2-ΔΔCt method, and standardized using the GAPDH mRNA in corresponding specimen a standard.

Test [4] deals with pain writhing response induced by 0.7% acetic acid. The test can be described thus: acetic acid writhing method (analgesia). The settings on record: for effect of A1 antagonist on analgesic effect of the HEA: DPCPX 1 mg/kg ip 10 minutes before HEA 15 mg/kg. Format: in vivo, mouse. On the procedure: Clean male Kunming mice, weight 18-22 g, selecting adenosine AiR antagonist DPCPX. The mice were divided into solvent group, HEA (15 mg/kg) group, DPCPX (1 mg/kg) and DPCPX+HEA (1 mg/kg+15 mg/kg) group; wherein in DPCPX+HEA group, the mouse was peritoneally injected with antagonist, after 10 minutes, the HEA was peritonealy injected. Using writhing method, the treatment dose was given, after 30-40 minutes, 0.7% acetic acid was peritoneally injected, and writhing number of the white mouse within 15 minutes was recorded, calculating the reduction number of pain writhing response induced by 0.7% acetic acid by the HEA.
(In general: An intraperitoneal irritant provokes the stretching counted in writhing tests.)

For the molecule `OCCNc1ncnc2c1ncn2[C@@H]1O[C@H](CO)[C@@H](O)[C@H]1O` [HEA, N(6)-(2-hydroxyethyl)-adenosine], in test [1], the “myeloperoxidase (MPO) activity in renal cortex” value was “significantly reduced”. Also, in test [2] (normal mouse, HEA 15 mg/kg ip, 15 min after administration, vs solvent group), the “spontaneous activity number within 5 min” value is listed as “significant; also recorded: significantly reduce spontaneous activity number of normal mouse within 5 min”. Besides, the “IL-1β mRNA expression in renal cortex” value in test [3] is reported as “significantly reduce the high expression”. The writhing number entry in test [4] (HEA 15 mg/kg ip, 0.7% acetic acid, within 15 minutes, vs solvent group) was “significantly reduced the writhing number; also recorded: significantly reduce writhing number”.
For the molecule `CCCn1c(=O)c2[nH]c(C3CCCC3)nc2n(CCC)c1=O` [DPCPX, reference compound], the “myeloperoxidase (MPO) activity in renal cortex” value in test [1] is “significantly increase MPO activity”. Moreover, in test [2] (DPCPX 4 mg/kg ip 10 min before HEA 15 mg/kg), the “effect of DPCPX on sedation of the HEA” value is “sedation of the HEA is significantly antagonized”. Moreover, in test [3], the “IL-1β mRNA expression in renal cortex” value is given as “significantly increase”. Moreover, the “effect of A1 antagonist on analgesic effect of the HEA” value was “analgesic effect of the HEA is significantly antagonized” in test [4] and “analgesic effect was reduced” in test [4] (listed as adenosine A1 receptor antagonist).
